In assay [1] the test system is L1210. Briefly: Compound was tested in vitro for its inhibition against replication of L1210 neoplastic cells. Format: functional. As to conditions: Mus musculus, read-out: ID50 (the source's name).
For assay [2], the system named is L1210. Briefly: Compound was tested in vitro for its inhibition against replication of L1210 neoplastic cells; Inactive. Format: functional, cell-based. The conditions noted are these: Mus musculus.

Calls of active or inactive are those of the source. No cut-off for these calls is given here.

On to `Cc1cn(C2CC3OP(=O)(N(CCCl)CCCl)N(C)CC3O2)c(=O)[nH]c1=O` (stereo not given), for which the IC50 in assay [1] was determined as 15 µM. Take `Cc1cn(C2CC3NP(=O)(N(CCCl)CCCl)NCC3O2)c(=O)[nH]c1=O` (stereo not given): in assay [2], the ID50 result is “inactive”. `O=P1(N(CCCl)CCCl)NCCCO1` (stereo not given): in assay [2], the ID50 entry is “inactive”. `O=c1[nH]c(=O)n(C2CC3OP(=O)(N(CCCl)CCCl)NCC3O2)cc1I` (stereo not given): the IC50 in assay [1] turned out to be 14 µM. Still for that read-out and setting: as for `Cc1cn(C2CC3OP(=O)(N(CCCl)CCCl)NCC3O2)c(=O)[nH]c1=O` (stereo not given), the figure is 12 µM.

The record behind these values is ChEMBL document CHEMBL1121561, “Synthesis and antineoplastic activity of a novel series of phosphoramide mustard analogues of pyrimidine deoxyribonucleosides” (1980).
